Results from PubChem BioAssay (NCI).
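Protocol summary: plate cells (96-well), add compound at 5 concentrations, incubate 48 h, interpolate endpoints linearly. GI50: concentration for 50% inhibition of growth. TGI denotes the concentration required for complete inhibition of growth.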

Assays:
Assay in all cases: inhibition of tumour cell growth, NCI panel, 48 h
OVCAR-3 ovarian = tested on: OVCAR-3 ovarian
UACC-257 melanoma = tested on: UACC-257 melanoma
SF-295 CNS = tested on: SF-295 CNS
NCI-H23 lung = tested on: NCI-H23 lung
U251 CNS = tested on: U251 CNS
SK-MEL-2 melanoma = tested on: SK-MEL-2 melanoma
HOP-92 NSCLC = tested on: HOP-92 NSCLC
DU-145 prostate = tested on: DU-145 prostate

Structure (SMILES)	TGI (OVCAR-3 ovarian) [µM]	TGI (UACC-257 melanoma) [µM]	TGI (SF-295 CNS) [µM]	TGI (NCI-H23 lung) [µM]	TGI (U251 CNS) [µM]	TGI (SK-MEL-2 melanoma) [µM]	TGI (HOP-92 NSCLC) [µM]	GI50 (OVCAR-3 ovarian) [µM]	GI50 (UACC-257 melanoma) [µM]	GI50 (DU-145 prostate) [µM]	TGI (DU-145 prostate) [µM]	GI50 (SF-295 CNS) [µM]	GI50 (NCI-H23 lung) [µM]	GI50 (U251 CNS) [µM]	GI50 (HOP-92 NSCLC) [µM]	GI50 (SK-MEL-2 melanoma) [µM]
Nc1cccc(S(=O)(=O)NCC(=O)O)c1	> 100	> 100	> 100	> 100	> 100	> 100	–	–	–	–	–	–	–	–	–	–
COC1(OC)CC2OC1C1N=NN(C(=O)OC(C)(C)C)C21 (stereo not given)	> 100	> 100	> 100	> 100	> 100	> 100	> 100	–	–	–	–	–	–	–	–	–
CC(=O)OCC1OC(NC(=S)N/N=C2\CC(c3ccccc3)Oc3ccccc32)C(OC(C)=O)C(OC(C)=O)C1OC(C)=O (stereo not given)	> 100	> 100	> 100	> 100	> 100	–	> 100	–	–	–	–	–	–	–	–	–
O=C1NC(=O)C(CCC(=O)c2ccc3ccccc3c2)C(=O)N1	> 100	> 100	> 100	> 100	> 100	> 100	> 100	–	–	–	–	–	–	–	–	–
COc1ccc(-c2onc(N)c2-c2cc(OC)c3c(c2)OCO3)cc1	7.08	> 100	> 100	> 100	> 26.1	–	> 100	2.08	3.43	3.57	> 59.3	2.32	2.87	2.79	4.98	–
CCCC1N2CCCCC2[C@@H]2c3[nH]c4ccccc4c3CCN12 (stereo not given in full)	> 100	> 100	> 100	> 100	> 100	> 100	> 100	–	–	–	–	–	–	–	–	–
O=C(CC1(O)C(=O)Nc2ccccc21)c1ccncc1 (stereo not given)	–	–	> 100	> 100	> 100	> 100	> 100	–	–	–	–	–	–	–	–	–
CCc1ccccc1NC(=O)C1=C(C)NC(C)=C(C(=O)Nc2ccccc2CC)C1c1ccc2c(c1)OCO2	84	> 100	> 100	> 100	97.1	53.1	60.1	–	–	–	–	–	–	–	–	–
COc1ccc(NC(=O)CC(=O)N/N=C/c2ccc(N(CCC#N)S(C)(=O)=O)cc2)cc1	> 100	–	> 100	> 100	> 100	> 100	–	–	–	–	–	–	–	–	–	–
CCN(CC)C(c1ccc(N(C)C)cc1)C(c1ccc(N(C)C)cc1)N(CC)CC (stereo not given)	> 73	> 73	> 73	> 73	> 73	> 73	45.7	–	–	–	–	–	–	–	–	–
CCOC(=O)/C(C#N)=C/c1[nH]c(C(=O)OCc2ccccc2)c(C)c1C	> 100	> 100	> 100	> 100	> 100	> 100	> 100	–	–	–	–	–	–	–	–	–
Cc1ccc(NC(=O)CC(=O)n2nc(C)c(N=Nc3ccccc3C(=O)O)c2C)cc1	> 100	> 100	> 100	> 100	> 100	> 100	–	–	–	–	–	–	–	–	–	–
COCCCNC(=O)C1C(=O)C(=O)N(CCCOC)C1=O (stereo not given)	> 100	> 100	> 100	> 100	> 100	> 100	> 100	–	–	–	–	–	–	–	–	–
C/C(O)=C(\N=O)C(=O)Nc1ccc(Cl)cc1Cl	> 100	> 100	> 100	> 100	> 100	> 100	> 100	–	–	–	–	–	–	–	–	–
C/C(CC(=O)Nc1cc(C)ccc1C)=N\NC(=O)c1ccncc1	> 100	> 100	> 100	> 100	> 100	> 100	> 100	–	–	–	–	–	–	–	–	–
NC1=NC(c2ccccc2)CC(c2cc(Cl)ccc2O)=N1 (stereo not given)	31.6	35.7	31	29.4	29.9	–	33.5	–	–	–	–	–	–	–	–	–
COc1ccc2nc3c(C(=O)NCCN(C)C)cccc3nc2c1	59.9	19.9	39.1	24.7	29.5	21.8	24	–	–	–	–	–	–	–	–	–
NC(=O)COC(=O)c1c(Cl)nc2sccn12	> 62.6	> 100	> 100	> 100	> 100	> 100	> 100	–	–	–	–	–	–	–	–	–
O=C(O)/C=C(\c1nc2ccc([N+](=O)[O-])cc2[nH]1)c1cc(Cl)ccc1O	–	7.15	20.1	19.6	19.2	7.59	5.35	–	2.37	4.12	> 100	3.43	1.96	3.21	0.711	2.4
CCC[CH2][Sn]1([CH2]CCC)[O]C(=O)CN=Cc2c(ccc3ccccc23)[O]1	1.95	0.285	2.08	1.11	1.2	0.687	0.606	0.706	0.0434	–	–	0.794	0.235	0.351	0.171	0.251
C#CCNC(=O)c1cccc2c1cc(C)n2-c1nc2c(c(NCc3ccccc3)n1)CCCC2	0.057	–	0.0418	0.0563	0.0646	0.0627	0.0669	0.0236	–	0.0298	0.108	0.0175	0.0195	0.0254	0.0239	0.023
CCCn1c(=S)sc2c1nc(C)n1c(Nc3ccccc3)nnc21	–	36.1	19.8	11.1	> 100	53.1	20.2	–	3.36	–	–	2.59	2.77	4.02	2.31	4.64
NC(=S)N1N=C2c3ccccc3CC[C@@H]2[C@@H]1c1ccccc1	12.7	56.3	> 42.2	19	21.6	> 48.5	47.2	–	–	–	–	–	–	–	–	–
Nc1c(-c2ccc(Cl)cc2)[n+]([O-])c2ccccc2[n+]1[O-]	> 100	> 100	> 100	> 100	> 100	> 100	> 100	–	–	–	–	–	–	–	–	–
Cn1c2ccccc2c2ccc3c(c21)C(=O)c1ccccc1C3=O	26.8	67.5	42	33.5	34.9	–	54.2	–	–	–	> 100	–	–	–	–	–
